This series has as its system intraperitoneal macrophages. Kind of series: Fluorescence-labeled cells among intraperitoneal macrophages after oral administration of fluorescence-conjugated peptides to normal mice. In kind it is in vivo, mouse. As to conditions: measured after 48 and 72 hours, FIG. 10. How it is done:
Furthermore, peptides 1, 2, and 4 were orally administered to normal mice after conjugation with each different fluorescence, and the frequency of fluorescence-labeled cells was measured among intraperitoneal macrophages after 48 and 72 hours.

In the case of LICPEKYCNKVHT [P1], the “time for which the fluorescence-labeled peptide was maintained among intraperitoneal macrophages” value is on record as “up to 72 hours”.

For the origin of these results see US20230125749A1, “COMPOSITION CONTAINING PEPTIDE OR PEPTIDE COMPOUND AS ACTIVE INGREDIENT, AND MEDICAL USE THEREFOR” (AJOU UNIVERSITY INDUSTRY-ACADEMIC COOPERATION FOUNDATION, priority 2019, published 2023).
